From PubChem BioAssay AID1919004 (Molecular Pharmacology Branch, DTP, NCI, 2023)
Where “and” joins values, the source holds several entries; their conditions need not be identical. Identical values can stand only once. Values belong to the compound of their own block, whether it stands above or below them.

System: 883617-216-R-J1-PDC complex spheroids, growth, % test/control
Assay: Anticancer human tumor 883617-216-R-J1-PDC patient-derived bladder carcinoma cell line growth inhibition [AhR]
Conditions: for viability, T/C: stronger effect = lower value
Method in brief: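 Complex tumor spheroids co-cultured with HUVEC and human MSC stroma; AhR antagonists tested in combination with standard-of-care and investigational agents. Top concentration at or near clinical Cmax (else 10 microM), half-log dilutions; growth expressed as percent test/control.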

[1] = curve of first compound, second compound 0.1 µM
[2] = curve of first compound, second compound 0.316 µM
[3] = curve of first compound, second compound 1 µM
[4] = curve of first compound, second compound 3.16 µM
[5] = curve of first compound, second compound 10 µM
[6] = second compound 0.1 µM, first compound 0.0316 µM
[7] = second compound 0.1 µM, first compound 0.1 µM
[8] = second compound 0.1 µM, first compound 0.316 µM
[9] = second compound 0.1 µM, first compound 1 µM
[10] = second compound 0.1 µM, first compound 3.16 µM
[11] = second compound 0.1 µM, first compound 10 µM
[12] = second compound 0.316 µM, first compound 0.0316 µM
[13] = second compound 0.316 µM, first compound 0.1 µM
[14] = second compound 0.316 µM, first compound 0.316 µM
[15] = second compound 0.316 µM, first compound 1 µM
[16] = second compound 0.316 µM, first compound 3.16 µM
[17] = second compound 0.316 µM, first compound 10 µM
[18] = second compound 1 µM, first compound 0.0316 µM
[19] = second compound 1 µM, first compound 0.1 µM
[20] = second compound 1 µM, first compound 0.316 µM
[21] = second compound 1 µM, first compound 1 µM
[22] = second compound 1 µM, first compound 3.16 µM
[23] = second compound 1 µM, first compound 10 µM
[24] = second compound 3.16 µM, first compound 0.0316 µM
[25] = second compound 3.16 µM, first compound 0.1 µM
[26] = second compound 3.16 µM, first compound 0.316 µM
[27] = second compound 3.16 µM, first compound 1 µM
[28] = second compound 3.16 µM, first compound 3.16 µM
[29] = second compound 3.16 µM, first compound 10 µM
[30] = second compound 10 µM, first compound 0.0316 µM
[31] = second compound 10 µM, first compound 0.1 µM
[32] = second compound 10 µM, first compound 0.316 µM
[33] = second compound 10 µM, first compound 1 µM
[34] = second compound 10 µM, first compound 3.16 µM
[35] = second compound 10 µM, first compound 10 µM
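Note: exposure lasted 7 days after dosing on day 3 of spheroid growth.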

Compound: Nc1ncn(C2CC(O)C(CO)S2)c(=O)n1 (stereo not given) + CC(CO)NC(=O)c1cc(-c2ccc(Cl)cc2)nn(-c2cnn(C)c2)c1=O
IC50 [1]: > 300 nM
IC50 [2]: 288 nM
IC50 [3]: > 300 nM
IC50 [4]: > 300 nM
IC50 [5]: > 300 nM
viability, T/C (second compound 0.1 µM, first compound 0.000949 µM): 65.6%
viability, T/C (second compound 0.1 µM, first compound 0.003 µM): 57.9%
viability, T/C (second compound 0.1 µM, first compound 0.00949 µM): 65%
viability, T/C (second compound 0.1 µM, first compound 0.03 µM): 76.6%
viability, T/C (second compound 0.1 µM, first compound 0.0949 µM): 80.2%
viability, T/C (second compound 0.1 µM, first compound 0.3 µM): 85.5%
viability, T/C (second compound 0.316 µM, first compound 0.000949 µM): 72.1%
viability, T/C (second compound 0.316 µM, first compound 0.003 µM): 112%
viability, T/C (second compound 0.316 µM, first compound 0.00949 µM): 70.8%
viability, T/C (second compound 0.316 µM, first compound 0.03 µM): 104%
viability, T/C (second compound 0.316 µM, first compound 0.0949 µM): 65.7%
viability, T/C (second compound 0.316 µM, first compound 0.3 µM): 49.2%
viability, T/C (second compound 1 µM, first compound 0.000949 µM): 69.9%
viability, T/C (second compound 1 µM, first compound 0.003 µM): 66.6%
viability, T/C (second compound 1 µM, first compound 0.00949 µM): 78.5%
viability, T/C (second compound 1 µM, first compound 0.03 µM): 118%
viability, T/C (second compound 1 µM, first compound 0.0949 µM): 43.9%
viability, T/C (second compound 1 µM, first compound 0.3 µM): 89.8%
viability, T/C (second compound 3.16 µM, first compound 0.000949 µM): 71%
viability, T/C (second compound 3.16 µM, first compound 0.003 µM): 80.3%
viability, T/C (second compound 3.16 µM, first compound 0.00949 µM): 75.6%
viability, T/C (second compound 3.16 µM, first compound 0.03 µM): 76%
viability, T/C (second compound 3.16 µM, first compound 0.0949 µM): 72.2%
viability, T/C (second compound 3.16 µM, first compound 0.3 µM): 92.9%
viability, T/C (second compound 10 µM, first compound 0.000949 µM): 67.4%
viability, T/C (second compound 10 µM, first compound 0.003 µM): 74.7%
viability, T/C (second compound 10 µM, first compound 0.00949 µM): 76.2%
viability, T/C (second compound 10 µM, first compound 0.03 µM): 71.9%
viability, T/C (second compound 10 µM, first compound 0.0949 µM): 102%
viability, T/C (second compound 10 µM, first compound 0.3 µM): 111%

Compound: Nc1ccn(C2OC(CO)C(O)C2(F)F)c(=O)n1 (stereo not given)
viability, T/C (compound 0.0316 µM): 28.9% and 105% and 26.2%
viability, T/C (compound 0.1 µM): 28.2% and 135% and 27.1%
viability, T/C (compound 0.316 µM): 32% and 64% and 25.9%
viability, T/C (compound 1 µM): 37% and 80.2% and 30.9%
viability, T/C (compound 3.16 µM): 40.3% and 118% and 35.9%
viability, T/C (compound 10 µM): 37.1% and 79.3% and 35.7%

Compound: Nc1ccn(C2OC(CO)C(O)C2(F)F)c(=O)n1 (stereo not given) + Cc1ccccc1N=Nc1ccc(NC(=O)c2ccnn2C)c(C)c1
IC50 [1]: < 31.6 nM
IC50 [2]: < 31.6 nM
IC50 [3]: < 31.6 nM
IC50 [4]: < 31.6 nM
IC50 [5]: < 31.6 nM
viability, T/C [6]: 27.8%
viability, T/C [7]: 26.8%
viability, T/C [8]: 35.4%
viability, T/C [9]: 32.4%
viability, T/C [10]: 30.2%
viability, T/C [11]: 32.2%
viability, T/C [12]: 25.1%
viability, T/C [13]: 26.1%
viability, T/C [14]: 32.5%
viability, T/C [15]: 33.5%
viability, T/C [16]: 35.2%
viability, T/C [17]: 37.5%
viability, T/C [18]: 28.6%
viability, T/C [19]: 22.8%
viability, T/C [20]: 31.5%
viability, T/C [21]: 36%
viability, T/C [22]: 34.2%
viability, T/C [23]: 31.7%
viability, T/C [24]: 26.1%
viability, T/C [25]: 22.3%
viability, T/C [26]: 31%
viability, T/C [27]: 31.3%
viability, T/C [28]: 37.3%
viability, T/C [29]: 32.4%
viability, T/C [30]: 36.3%
viability, T/C [31]: 27.8%
viability, T/C [32]: 29.4%
viability, T/C [33]: 34.5%
viability, T/C [34]: 31.1%
viability, T/C [35]: 32.4%

Compound: COc1cc(C2c3cc4c(cc3C(OC3OC5COC(C)OC5C(O)C3O)C3COC(=O)C23)OCO4)cc(OC)c1O (stereo not given)
viability, T/C (compound 0.0316 µM): 91.8% and 80.6% and 110%
viability, T/C (compound 0.1 µM): 107% and 89.4% and 97.1%
viability, T/C (compound 0.316 µM): 75.1% and 76.3% and 79.2%
viability, T/C (compound 1 µM): 63.8% and 88.8% and 74%
viability, T/C (compound 3.16 µM): 69.7% and 85.2% and 68.1%
viability, T/C (compound 10 µM): 59.4% and 84.4% and 59.1%
IC50 (curve of compound): > 10000 nM

Further lines, with some results ahead:

IC50 (curve of compound): 1150 nM and 1390 nM and 4400 nM
Compound: Nc1ccccc1NC(=O)c1ccc(CNC(=O)OCc2cccnc2)cc1
viability, T/C (compound 0.0316 µM): 96.9% and 100% and 89.9%
viability, T/C (compound 0.1 µM): 102% and 111% and 88.5%
viability, T/C (compound 0.316 µM): 86.1% and 82.7% and 81.7%
viability, T/C (compound 1 µM): 52.8% and 62.3% and 78.8%
viability, T/C (compound 3.16 µM): 20% and 24.2% and 63.7%
viability, T/C (compound 10 µM): 0.83% and 1.59% and 18.8%

IC50 [1]: 6160 nM
IC50 [2]: 6290 nM
IC50 [3]: 5920 nM
IC50 [4]: 8250 nM
IC50 [5]: > 10000 nM
Compound: CC1(C)CCC(CN2CCN(c3ccc(C(=O)NS(=O)(=O)c4ccc(NCC5CCOCC5)c([N+](=O)[O-])c4)c(Oc4cnc5[nH]ccc5c4)c3)CC2)=C(c2ccc(Cl)cc2)C1 + Cc1cncc(-c2nc(NCCc3c[nH]c4ccccc34)c3ncn(C(C)C)c3n2)c1
viability, T/C [6]: 85.7%
viability, T/C [7]: 88.8%
viability, T/C [8]: 90%
viability, T/C [9]: 78.6%
viability, T/C [10]: 80.4%
viability, T/C [11]: 28.5%
viability, T/C [12]: 97.3%
viability, T/C [13]: 99.2%
viability, T/C [14]: 94.2%
viability, T/C [15]: 88.5%
viability, T/C [16]: 82.2%
viability, T/C [17]: 29%
viability, T/C [18]: 86.5%
viability, T/C [19]: 89.7%
viability, T/C [20]: 87.7%
viability, T/C [21]: 84.5%
viability, T/C [22]: 82.5%
viability, T/C [23]: 23%
viability, T/C [24]: 99.1%
viability, T/C [25]: 108%
viability, T/C [26]: 115%
viability, T/C [27]: 97.2%
viability, T/C [28]: 106%
viability, T/C [29]: 38.9%
viability, T/C [30]: 49.4%
viability, T/C [31]: 52.6%
viability, T/C [32]: 57.1%
viability, T/C [33]: 61.4%
viability, T/C [34]: 72%
viability, T/C [35]: 37.3%
